Consider 1 compound from publication PMC2628638, “Catalytic inhibition of topoisomerase II by a novel rationally designed ATP-competitive purine analogue” (BMC Chemical Biology, 2009).

For assay [1], the system named is HeLa T-Rex cells. Put plainly: Gamma-H2AX In-Cell Western assay (doxorubicin-induced DNA damage). The assay is classed as cell-based. As to conditions: Homo sapiens, HeLa; 30 minutes pretreatment, then 1 μM doxorubicin for 2 hours; read-out: IC50, suppression of doxorubicin-induced γH2AX signal. As to the method: In-Cell Western analysis was carried out as follows. HeLa T-Rex cells were seeded at the cell density of 15 × 10^3 cells per well in black 96-well plates (Greiner Bio-one Vacuette, St Gallen, Switzerland). The day post-seeding, cells were pretreated with increasing concentrations of either ICRF-193, QAP 1 or vehicle (DMSO) for 30 minutes followed by a 2 hours treatment with 1 μM of doxorubicin, or were only treated with the same concentrations of ICRF-193, QAP 1 or vehicle (DMSO) for 2 hours. Treatments were done in triplicate. […] Finally, cells were washed 4 times with 50 μl per well of PBS containing 0.1% Tween-20 for 3 minutes, liquid was removed and plates were kept at 4°C until reading. γH2AX signals were read using the LI-COR Odyssey Infrared Imager with the Odyssey v1.1 software using the 800 nm channel. Blank values correspond to non-specific γH2AX signal detected in wells without primary antibody staining. […] The resulting values for each sample were normalized to the DNA quantity by measuring the corresponding TO-PRO-3 iodide signals. The TO-PRO-3 iodine signals were detected by using the 700 nm channel. The percentage of γH2AX signal was determined for each concentration of ICRF193 and QAP 1 with or without doxorubicin treatment by setting the value for the treatment with vehicle and 1 μM doxorubicin to 100%. […]

Assay [2] deals with HL-60 cells. The assay is described as follows: Chromosome segregation assay (chromosome spreads). It counts as cell-based. As to conditions: 10 μM with 1 mM caffeine for 2 hours after 6 hours release. The method, then: HL-60 cells were treated overnight for 16 hours with 2 μg/ml aphidicolin (Sigma-Aldrich corporation, St. Louis, MO) and released by washing twice PBS and resuspending into fresh medium. After 6 hours release the cells were treated with 1 mM caffeine (Lancaster Synthesis, Heysham, Lancashire, UK) and with catalytic topoisomerase II inhibitor or vehicle for 2 hours. Cells were washed once with PBS and incubated with 56 mM KCl hypotonic solution for 30 minutes. Cells were pelleted and carefully resuspended in Carnoy's fixative. Cells were pelleted as above, supernatant was removed and cells were resuspended again in 2 ml fixative. Chromosome spreads were prepared by dropping 50 μl cell suspension onto microscopy slides. The slides were allowed to dry and then stained for 10 seconds in Hoechst 33342 dye (Molecular Probes, Eugene, Oregon, prepared 1:1000 in PBS from 10 mg/ml stock). After drying, mounting media (Vectashield®, Vector Laboratories, Burlingame, CA) and a cover slip were added. Samples were observed using an immersion oil lens (100 ×, Nikon, Plan Apo VC) by fluorescence microscopy (Nikon Eclipse, E600) in the DAPI channel. Images were acquired using analySIS® software (Soft Imaging System GmbH, Münster, Germany). Representative images were converted to grayscale, inverted and contrast adjusted with Adobe Photoshop. Mitotic cells were categorized as described.

Assay [3] deals with T1, purified human topoisomerase II alpha (Homo sapiens, UniProt P11388).
T1 construct: screened in an ATPase assay using purified full length tagged human topoisomerase II alpha; made in house; host or cells: Sf21 insect cells, baculovirus (pFastBac1)
The assay is described as follows: DNA decatenation assay with purified enzyme (kDNA). It counts as biochemical. The conditions noted are these: catenated kDNA, read-out: mean IC50, inhibition of DNA decatenation. The method, then: Reagents for the assay were purchased from TopoGEN (catalog number 1001–1, TopoGEN, Inc., Port Orange, FL). Topoisomerase II was extracted according to the manufacturer's instructions from nuclei of HL-60 cells (ATCC; American Type Culture Collection, Manassas, Virginia, USA) and contained both isoforms as assessed by Western blotting. Calculation of specific topoisomerase II decatenation activity was based on complete decatenation of a given amount of catenated input DNA (100 ng kDNA) by a defined amount of nuclear extract containing the alpha and beta isoforms or of a defined amount of purified enzyme in a particular amount of time. The topoisomerase II activity from nuclei decatenated 0.07 ng catenated kDNA · min^-1 · ng^-1 extract. Purified topoisomerase II alpha (see above) decatenated 0.13 ng catenated kDNA · min^-1 · ng^-1. Vehicle (DMSO) or drug substance at concentrations to yield the desired end concentrations were added and samples were preincubated for 5 minutes at 37°C and 400 rpm in an Eppendorf thermomixer. Reactions were started by adding ATP (to 450 μM final concentration) to each sample and incubation was continued for 20 minutes. […] Gels were analyzed under a UV transilluminator and decatenated kDNA products were quantified using AlphaEaseFC (FluorChem 8900) image analysis software version 3.2.3 (Alpha Innotech, San Leandro, CA).

For orientation: IC50 means the concentration at which inhibition is half-maximal.

T1 sequence (P11388 whole entry): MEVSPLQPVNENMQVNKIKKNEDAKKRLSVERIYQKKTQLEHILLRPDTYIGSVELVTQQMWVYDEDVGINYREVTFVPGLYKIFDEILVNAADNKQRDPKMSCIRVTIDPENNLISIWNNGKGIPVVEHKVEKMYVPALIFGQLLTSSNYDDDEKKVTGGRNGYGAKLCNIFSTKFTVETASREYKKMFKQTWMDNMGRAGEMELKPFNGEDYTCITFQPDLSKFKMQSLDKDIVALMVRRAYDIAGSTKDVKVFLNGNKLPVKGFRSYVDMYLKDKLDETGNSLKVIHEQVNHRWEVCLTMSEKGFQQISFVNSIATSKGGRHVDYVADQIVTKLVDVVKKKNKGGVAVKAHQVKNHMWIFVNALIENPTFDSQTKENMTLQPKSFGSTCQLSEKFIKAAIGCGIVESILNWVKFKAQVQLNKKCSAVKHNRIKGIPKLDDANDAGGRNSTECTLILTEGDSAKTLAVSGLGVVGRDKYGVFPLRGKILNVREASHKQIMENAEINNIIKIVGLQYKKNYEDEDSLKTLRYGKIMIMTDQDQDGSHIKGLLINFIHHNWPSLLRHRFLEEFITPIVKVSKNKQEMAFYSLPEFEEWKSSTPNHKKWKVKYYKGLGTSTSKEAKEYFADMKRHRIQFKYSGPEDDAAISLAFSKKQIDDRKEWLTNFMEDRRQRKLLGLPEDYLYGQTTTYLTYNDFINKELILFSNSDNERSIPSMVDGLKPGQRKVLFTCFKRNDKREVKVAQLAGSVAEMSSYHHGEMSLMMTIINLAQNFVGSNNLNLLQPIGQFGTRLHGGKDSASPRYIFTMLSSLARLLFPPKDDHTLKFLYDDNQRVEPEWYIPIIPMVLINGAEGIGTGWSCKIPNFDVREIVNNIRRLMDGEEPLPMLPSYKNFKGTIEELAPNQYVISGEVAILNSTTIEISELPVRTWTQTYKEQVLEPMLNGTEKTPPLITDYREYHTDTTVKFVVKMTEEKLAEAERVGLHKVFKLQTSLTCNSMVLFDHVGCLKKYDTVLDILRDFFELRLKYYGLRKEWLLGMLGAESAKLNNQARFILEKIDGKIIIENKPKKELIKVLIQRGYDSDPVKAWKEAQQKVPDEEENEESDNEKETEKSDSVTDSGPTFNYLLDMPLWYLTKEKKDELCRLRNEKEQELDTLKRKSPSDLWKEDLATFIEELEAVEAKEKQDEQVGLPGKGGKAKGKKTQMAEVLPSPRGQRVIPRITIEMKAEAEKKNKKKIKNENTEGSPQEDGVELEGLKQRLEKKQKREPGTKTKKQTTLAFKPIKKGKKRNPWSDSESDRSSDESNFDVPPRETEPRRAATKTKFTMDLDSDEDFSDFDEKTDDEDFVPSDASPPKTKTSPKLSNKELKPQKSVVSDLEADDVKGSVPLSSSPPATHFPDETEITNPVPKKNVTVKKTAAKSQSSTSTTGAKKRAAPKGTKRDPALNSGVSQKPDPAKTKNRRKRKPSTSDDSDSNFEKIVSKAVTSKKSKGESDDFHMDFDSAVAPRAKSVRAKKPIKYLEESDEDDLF

Regarding `CCc1nc2nc(Nc3ccc4nc(OCCN5CCOCC5)ccc4c3)nc(NC(C)(C)C)c2[nH]1` [QAP 1], the half-inhibitory concentration (IC50) was approximately 1.1 µM in assay [1] and 0.66 µM in assay [3]. Moreover, the “chromosome segregation at mitosis” value in assay [2] is reported as “mitosis was also severely perturbed during anaphase”.
